In article PMC7113773 (Antiviral Research, 2014):

Assays:
in vitro = conditions: dog
[1] = tested on: PR8 virus NP and HA protein; format: cell-based, influenza A virus; conditions: 11, 33 and 100 μM, 24 h at 35 °C
[2] = tested on: wild-type NA derived from influenza H1N1 (A/California/04/2009); format: biochemical
HSV = test: MTT-based antiviral assay, HSV in Vero cells; format: cell-based, herpes simplex virus; conditions: maximum concentration of 100 μM, data not shown
CoxB = test: MTT-based antiviral assay, CoxB in HeLa cells; format: cell-based, Coxsackie B virus; conditions: maximum concentration of 100 μM, data not shown
PR8 virus [3] = format: cell-based, influenza A virus
PR8 virus [4] = format: cell-based, influenza A virus; remark: listed apart in the source
[5] = target: PR8-derived viral RNA polymerase (Influenza A virus, UniProt P03428+P03431+P03433); format: cell-based; conditions: 11, 33 and 100 μM, Vero cells, FLuc normalized against RLuc, day 1
HIV = test: MTT-based antiviral assay, HIV in MT-4 cells; format: cell-based, human immunodeficiency virus; conditions: maximum concentration of 100 μM, data not shown
FECV = test: MTT-based antiviral assay, FECV in CrFK cells; format: cell-based, feline coronavirus; conditions: maximum concentration of 100 μM, data not shown
[6] = tested on: influenza A/H1N1, A/H3N2 and B viruses; test: CPE reduction assay / screen, stated for the three influenza viruses together; format: cell-based; conditions: Influenza A virus, H1N1|H3N2, read-out: virus growth inhibition
PR8 NA = PR8 NA (Influenza A virus, UniProt P03468); test: biochemical
Sequence of PR8 NA (P03468 whole entry, looked up): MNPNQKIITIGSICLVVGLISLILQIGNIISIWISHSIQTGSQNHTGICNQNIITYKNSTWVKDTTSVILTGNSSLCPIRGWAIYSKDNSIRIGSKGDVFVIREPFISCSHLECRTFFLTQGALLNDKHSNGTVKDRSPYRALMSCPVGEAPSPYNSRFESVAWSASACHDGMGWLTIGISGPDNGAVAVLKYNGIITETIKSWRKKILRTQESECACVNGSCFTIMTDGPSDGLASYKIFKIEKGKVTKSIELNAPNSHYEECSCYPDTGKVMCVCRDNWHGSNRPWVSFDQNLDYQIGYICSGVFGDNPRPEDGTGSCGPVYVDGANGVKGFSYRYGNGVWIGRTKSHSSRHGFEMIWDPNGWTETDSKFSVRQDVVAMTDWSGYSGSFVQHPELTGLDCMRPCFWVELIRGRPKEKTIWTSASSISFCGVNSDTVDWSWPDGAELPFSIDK

PR8 virus entry = test: Confocal microscopy of viral NP; conditions: 100 μM, MOI 2.5, 2 h at 37 °C, MDCK cells
B/Lee/40 = format: cell-based, influenza B virus
A/Hong Kong/8/68 (H3N2) = test: organism not typed; format: cell-based, influenza A virus; conditions: for EC50: MDCK, 72 h, read-out: EC50 for influenza virus A/Hong Kong/8/68
[7] = tested on: pore-forming glycoprotein perforin; conditions: previous study, ref Lena et al., 2008; cited from earlier work
[8] = tested on: A/Puerto Rico/8/34 (H1N1; PR8); test: organism not typed; format: cell-based, influenza A virus; conditions: for EC50: MDCK, 72 h, read-out: EC50 for influenza virus A/Puerto Rico/8/34
PR8 virus [9] = format: cell-based, influenza A virus; remark: listed apart in the source

Row | Structure (SMILES) | CC50 (in vitro) [µM] | viral protein level (NP, HA) in cells [1] | function of wild-type NA [2] | antiviral activity against HSV (HSV) | antiviral activity against CoxB (CoxB) | vRNA levels in culture supernatants (PR8 virus [3]) | plaque titer (infectious viral titers) (PR8 virus [4]) | viral RNA polymerase function [5] | antiviral activity against HIV (HIV) | antiviral activity against FECV (FECV) | inhibition at 20 µM [6] [%] | IC50 (PR8 NA) [µM] | NP signal, distribution and intensity in cells (PR8 virus entry) | S.I. (selectivity index, CC50/EC50), B/Lee/40 (B/Lee/40) | S.I. (selectivity index, CC50/EC50), A/Hong Kong/8/68 (A/Hong Kong/8/68 (H3N2)) | EC50 (A/Hong Kong/8/68 (H3N2)) [µM] | inhibitory effect on cell lysis induced by perforin [7] | S.I. (selectivity index, CC50/EC50), A/Puerto Rico/8/34 [8] | EC50 [8] [µM] | HA titer (PR8 virus [9])
1 | Cc1cc2c(c(=S)[nH]1)C(=O)O/C2=C\c1c[nH]c2ccc(F)cc12 [Compound 15a, (Z)-1-((5-Fluoro-1H-indol-3-yl)methylene)-6-methyl-4-thioxo-4,5-dihydrofuro[3,4-c]pyridin-3(1H)-one] | > 900 | Reduction of the influenza viral protein level | suppressed | no antiviral activity was detected | no antiviral activity was detected | significantly inhibited | significantly inhibited | not changed | no antiviral activity was detected | no antiviral activity was detected | > 50 | 0.6 ± 0.1 | – | – | – | – | – | – | – | –
2 | Cc1cc2c(c(=S)[nH]1)C(=O)O/C2=C\c1cccs1 [Compound 15q, (Z)-6-Methyl-1-(thiophen-2-ylmethylene)-4-thioxo-4,5-dihydrofuro[3,4-c]pyridin-3(1H)-one] | > 900 | Reduction of the influenza viral protein level | – | no antiviral activity was detected | no antiviral activity was detected | significantly inhibited | significantly inhibited | not changed | no antiviral activity was detected | no antiviral activity was detected | – | 1.5 ± 0.4 | not affected | 7.0 ± 3.8 (>128.6) | 6.8 ± 1.3 (>132.4) | 6.8 | active | 7.5 ± 3.2 (>120.0) | 7.5 | –
3 | NC(=O)c1nc(F)c[nH]c1=O [Compound T-705, 6-flouro-3-hydroxy-2-pyrazinecarboxamide, reference compound] | > 100 | – | – | – | – | – | – | suppressed | – | – | – | – | – | – | – | 6.5 ± 1.7 | – | – | 4.3 ± 2.4 | 8 HAU/50 μl
4 | O=C(O[C@@H]1Cc2c(O)cc(O)cc2O[C@@H]1c1cc(O)c(O)c(O)c1)c1cc(O)c(O)c(O)c1 [EGCG, (−)-epigallocatechin-3-gallate, reference compound] | – | – | – | – | – | – | – | – | – | – | – | – | reduced the overall NP signal intensity | – | – | – | – | – | – | –
5 | CCC(CC)O[C@@H]1C=C(C(=O)O)C[C@H](N)[C@H]1NC(C)=O [Oseltamivir carboxylate, oseltamivir carboxylate, reference compound] | > 100 | – | – | – | – | – | – | – | – | – | – | – | – | – | – | < 0.01 | – | – | 0.03 ± 0.01 | no detection
